Key:
[1] = tested on: N2a cell pairs expressing Cx43; test: Patch clamp, octanol-induced uncoupling of Cx43 channels; type: cell-based
[2] = tested on: carboxyl terminal domain of Cx43 (Cx43CT); test: Surface plasmon resonance, peptide binding to immobilised Cx43CT; conditions: molecular weight-normalized responses, same sensor chip
[3] = tested on: N2a cells expressing Cx40; test: Patch clamp, octanol-induced uncoupling of Cx40 channels; type: cell-based; conditions: N2a cells expressing Cx40, peptide in pipette
recombinant Cx40CT = test: Surface plasmon resonance with recombinant Cx40CT; type: binding; conditions: Online Figure IV
recombinant Cx43CT = test: NMR 15N-HSQC of Cx43CT titrated with peptide; type: binding; conditions: Cx43CT titrated with peptide to 1:500 and 1:900 molar ratio
[4] = molecular target: carboxyl terminal domain of Cx43 (Cx43CT), recombinant; test: SPR

Molecule: Cyclo-RRPPYQ (head to tail) [CyRP-62]
- cells remaining coupled after ten minutes of octanol superfusion ([1]; peptide 100 μM in patch pipette): 100%

Molecule: RRNYRRNY
- cell pairs in which the peptide failed to prevent uncoupling ([1]; octanol-induced uncoupling, peptide in pipette): approximately 40%
- cell pairs remaining coupled at the end of octanol exposure (number of pairs) ([1]; peptide in patch pipette (100 μM), 10 minutes of octanol): four of the six

Molecule: Cyclo-RRPPYRQ (head to tail) [CyRP-71]
- SPR response relative to CyRP-62 (times higher) [2]: 9 times
- effect on time course of octanol-induced uncoupling in Cx40 (in words) [3]: did not modify the time course
- SPR response with Cx40CT (in words) (recombinant Cx40CT): only a minor SPR deflection
- interaction with Cx43CT by 15N-HSQC resonance shifts (in words) (recombinant Cx43CT): confirm the binding of Cx43CT to CyRP-71

Molecule: CyRP-71 (cyclo-RRPPYRQ as printed in Table 1) (peptide)
- SPR response amplitude normalized by molecular weight [4]: 33.9 a.u.

Molecule: RRPPYQ (backbone-cyclized (cyclo-, Q6 joined to R1)) [CyRP-62 (cyclo-RRPPYQ)]
- SPR response amplitude normalized by molecular weight (125 μM) [4]: 3.71 a.u.

Reference: article PMC2737470 (Circulation research, 2009)
